Among the data in PubChem BioAssay (NCI) are GI50 and TGI values, retold here.

Structures are written as SMILES. Values joined by “and” are separate entries in the source; they are usually repeats but may differ in a detail not shown here. Equal entries are not always repeated.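 Briefly, cells in 96-well plates were exposed to five compound concentrations for 48 h, and endpoints were estimated by linear interpolation. Here, GI50 denotes the concentration required for 50% inhibition of growth. TGI denotes the concentration required for complete inhibition of growth.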

For one test, the system named is MCF7 breast. In words: growth of human tumour cells (NCI), 48 h.
For `COC(=O)c1nc(-c2ccccc2)oc1S(=O)(=O)Cc1ccccc1`, the GI50 is 2.72 µM and the TGI turned out to be 11.1 µM.
`CN(O)c1nc(N(C)O)nc(N2CCOCC2)n1`: the GI50 is 3.95 µM and the TGI was greater than 100 µM.
Consider `COc1ccc(-c2c[nH]c(C(=O)O)c2-c2cc(OC)c(OC)c(OC)c2)cc1`, for which the GI50 was 3.89 µM and the TGI was greater than 100 µM.
For `C#Cc1c(F)ccc2cc(O)cc(-c3ncc4c(N5CC6CCC(C5)N6)nc(OC[C@@]56CCCN5C[C@H](F)C6)nc4c3F)c12` the same measures were 8.48 µM and 24 µM.
For `C=C(C)C(=O)Nc1ccc(NC(C)C)cc1` the same measures were greater than 100 µM and greater than 100 µM.
With `COc1cc(CSc2nc3ccc(C)cc3c(=O)n2-c2ccccc2)cc(OC)c1OC`, the GI50 is 0.548 µM and the TGI was greater than 100 µM.
Turning to `C=C(C)C(=O)O[C@H]1CC(=C)[C@@H]2C[C@H](O)[C@](O)(CCl)[C@@H]2[C@H]2OC(=O)C(=C)[C@@H]21`, the GI50 is 1.6 µM and the TGI came out at 4.04 µM.
`CCC1C2Cc3ccc(O)cc3C1(CC)CCN2C` (stereo not drawn): the TGI is greater than 100 µM.
In turn, `CC1CCC(NC(=O)N(CCCl)N=O)CC1` (stereo not drawn) returned a TGI of 110 µM.
Still for that read-out and setting: the figure for `COc1ccc(C2=CC(c3ccc4c(c3)OCO4)c3c(c4ccccc4oc3=O)O2)cc1OC` (stereo not drawn) is greater than 100 µM.
Turning to `CC(C)[C@H](N)C(=O)N1CCC[C@H]1B(O)O`, the GI50 was greater than 100 µM and the TGI is greater than 100 µM.
`CC(=O)OCC1OC(n2cnc(C(N)=S)c2N)C(OC(C)=O)C1OC(C)=O` (stereo not drawn) came in with a TGI greater than 100 µM.

The next test deals with LOX IMVI melanoma. In words: growth of human tumour cells (NCI), 48 h.
As to `COC(=O)c1nc(-c2ccccc2)oc1S(=O)(=O)Cc1ccccc1`, the GI50 was 2.88 µM and the TGI came out at 8.7 µM.
`CN(O)c1nc(N(C)O)nc(N2CCOCC2)n1`: the GI50 was 1.67 µM and the TGI was greater than 100 µM.
For `COc1ccc(-c2c[nH]c(C(=O)O)c2-c2cc(OC)c(OC)c(OC)c2)cc1`, the GI50 is 6.69 µM and the TGI is greater than 100 µM.
Consider `C#Cc1c(F)ccc2cc(O)cc(-c3ncc4c(N5CC6CCC(C5)N6)nc(OC[C@@]56CCCN5C[C@H](F)C6)nc4c3F)c12`, for which the GI50 was 15.5 µM and the TGI was 41.9 µM.
Turning to `C=C(C)C(=O)Nc1ccc(NC(C)C)cc1`, the GI50 was greater than 100 µM and the TGI was greater than 100 µM.
Take `COc1cc(CSc2nc3ccc(C)cc3c(=O)n2-c2ccccc2)cc(OC)c1OC`: the GI50 was 4.13 µM and the TGI was greater than 100 µM.
For `C=C(C)C(=O)O[C@H]1CC(=C)[C@@H]2C[C@H](O)[C@](O)(CCl)[C@@H]2[C@H]2OC(=O)C(=C)[C@@H]21` the same measures were 1.8 µM and 3.39 µM.
With `CCC1C2Cc3ccc(O)cc3C1(CC)CCN2C` (stereo not drawn), the TGI is greater than 100 µM.
As for `CC1CCC(NC(=O)N(CCCl)N=O)CC1` (stereo not drawn), the GI50 was 14.7 µM; the TGI is 39.8 µM and 52.6 µM.
Compound `COc1ccc(C2=CC(c3ccc4c(c3)OCO4)c3c(c4ccccc4oc3=O)O2)cc1OC` (stereo not drawn) came in with a TGI greater than 100 µM.
Take `CC(C)[C@H](N)C(=O)N1CCC[C@H]1B(O)O`: the GI50 was greater than 100 µM and the TGI is greater than 100 µM.
Compound `CC(=O)OCC1OC(n2cnc(C(N)=S)c2N)C(OC(C)=O)C1OC(C)=O` (stereo not drawn) showed a TGI greater than 100 µM.

Another test relates to CCRF-CEM leukemia. In words: growth of human tumour cells (NCI), 48 h.
Turning to `COC(=O)c1nc(-c2ccccc2)oc1S(=O)(=O)Cc1ccccc1`, the GI50 is 2.91 µM and the TGI was determined as 8.41 µM.
`CN(O)c1nc(N(C)O)nc(N2CCOCC2)n1`: the GI50 is 0.793 µM and the TGI is greater than 100 µM.
Consider `COc1ccc(-c2c[nH]c(C(=O)O)c2-c2cc(OC)c(OC)c(OC)c2)cc1`, for which the GI50 was 4.08 µM and the TGI was greater than 100 µM.
For the compound `C#Cc1c(F)ccc2cc(O)cc(-c3ncc4c(N5CC6CCC(C5)N6)nc(OC[C@@]56CCCN5C[C@H](F)C6)nc4c3F)c12`, the GI50 was 8.21 µM and the TGI turned out to be 29.1 µM.
Regarding `C=C(C)C(=O)Nc1ccc(NC(C)C)cc1`, the GI50 was greater than 100 µM and the TGI was greater than 100 µM.
As to `COc1cc(CSc2nc3ccc(C)cc3c(=O)n2-c2ccccc2)cc(OC)c1OC`, the GI50 is 2.66 µM and the TGI was greater than 100 µM.
Regarding `C=C(C)C(=O)O[C@H]1CC(=C)[C@@H]2C[C@H](O)[C@](O)(CCl)[C@@H]2[C@H]2OC(=O)C(=C)[C@@H]21`, the GI50 is 1.57 µM and the TGI was 3.71 µM.
As to `CCC1C2Cc3ccc(O)cc3C1(CC)CCN2C` (stereo not drawn), the TGI was greater than 100 µM.
On to `CC1CCC(NC(=O)N(CCCl)N=O)CC1` (stereo not drawn), for which the GI50 is 8.11 µM; the TGI was 30.3 µM and 55.8 µM.
In the case of `COc1ccc(C2=CC(c3ccc4c(c3)OCO4)c3c(c4ccccc4oc3=O)O2)cc1OC` (stereo not drawn), the TGI was greater than 100 µM.
For `CC(C)[C@H](N)C(=O)N1CCC[C@H]1B(O)O`, the GI50 was greater than 100 µM and the TGI is greater than 100 µM.
`CC(=O)OCC1OC(n2cnc(C(N)=S)c2N)C(OC(C)=O)C1OC(C)=O` (stereo not drawn): the TGI is greater than 100 µM.

The test system of the next test is SF-268 CNS. In words: growth of human tumour cells (NCI), 48 h.
Regarding `COC(=O)c1nc(-c2ccccc2)oc1S(=O)(=O)Cc1ccccc1`, the GI50 is 16.1 µM and the TGI was 32.8 µM.
The like results for `CN(O)c1nc(N(C)O)nc(N2CCOCC2)n1` were, in that order, 5.7 µM and greater than 100 µM.
For `COc1ccc(-c2c[nH]c(C(=O)O)c2-c2cc(OC)c(OC)c(OC)c2)cc1` the same measures were greater than 100 µM and greater than 100 µM.
As for `C#Cc1c(F)ccc2cc(O)cc(-c3ncc4c(N5CC6CCC(C5)N6)nc(OC[C@@]56CCCN5C[C@H](F)C6)nc4c3F)c12`, the GI50 is 12 µM and the TGI is 25.4 µM.
For `C=C(C)C(=O)Nc1ccc(NC(C)C)cc1` the same measures were greater than 100 µM and greater than 100 µM.
For the compound `COc1cc(CSc2nc3ccc(C)cc3c(=O)n2-c2ccccc2)cc(OC)c1OC`, the GI50 is 6.37 µM and the TGI is greater than 100 µM.
The like results for `C=C(C)C(=O)O[C@H]1CC(=C)[C@@H]2C[C@H](O)[C@](O)(CCl)[C@@H]2[C@H]2OC(=O)C(=C)[C@@H]21` were, in that order, 3.76 µM and 17.4 µM.
`CCC1C2Cc3ccc(O)cc3C1(CC)CCN2C` (stereo not drawn): the TGI is greater than 100 µM.
With `CC1CCC(NC(=O)N(CCCl)N=O)CC1` (stereo not drawn), the GI50 was 14.9 µM; the TGI was 39.8 µM and 89.5 µM.
As for `COc1ccc(C2=CC(c3ccc4c(c3)OCO4)c3c(c4ccccc4oc3=O)O2)cc1OC` (stereo not drawn), the TGI was greater than 100 µM.
For `CC(C)[C@H](N)C(=O)N1CCC[C@H]1B(O)O`, the GI50 is greater than 100 µM and the TGI is greater than 100 µM.
In the case of `CC(=O)OCC1OC(n2cnc(C(N)=S)c2N)C(OC(C)=O)C1OC(C)=O` (stereo not drawn), the TGI was greater than 100 µM.

Another test relates to HL-60(TB) leukemia. In words: growth of human tumour cells (NCI), 48 h.
With `COC(=O)c1nc(-c2ccccc2)oc1S(=O)(=O)Cc1ccccc1`, the GI50 is 2.3 µM and the TGI was 6.22 µM.
The like results for `CN(O)c1nc(N(C)O)nc(N2CCOCC2)n1` were, in that order, 16 µM and greater than 100 µM.
For `COc1ccc(-c2c[nH]c(C(=O)O)c2-c2cc(OC)c(OC)c(OC)c2)cc1` the same measures were 3.06 µM and 9.59 µM.
With `C#Cc1c(F)ccc2cc(O)cc(-c3ncc4c(N5CC6CCC(C5)N6)nc(OC[C@@]56CCCN5C[C@H](F)C6)nc4c3F)c12`, the GI50 is 8.23 µM and the TGI came to 26.6 µM.
For the compound `C=C(C)C(=O)Nc1ccc(NC(C)C)cc1`, the GI50 is greater than 100 µM and the TGI is greater than 100 µM.
`COc1cc(CSc2nc3ccc(C)cc3c(=O)n2-c2ccccc2)cc(OC)c1OC`: the GI50 was 1.72 µM and the TGI is greater than 100 µM.
As to `C=C(C)C(=O)O[C@H]1CC(=C)[C@@H]2C[C@H](O)[C@](O)(CCl)[C@@H]2[C@H]2OC(=O)C(=C)[C@@H]21`, the GI50 is 1.97 µM and the TGI was 4.19 µM.
Regarding `CCC1C2Cc3ccc(O)cc3C1(CC)CCN2C` (stereo not drawn), the TGI is greater than 100 µM.
`CC1CCC(NC(=O)N(CCCl)N=O)CC1` (stereo not drawn): the GI50 was 8.98 µM; the TGI was 24.1 µM and 72.2 µM.
As to `COc1ccc(C2=CC(c3ccc4c(c3)OCO4)c3c(c4ccccc4oc3=O)O2)cc1OC` (stereo not drawn), the TGI amounted to 1.67 µM.
For `CC(C)[C@H](N)C(=O)N1CCC[C@H]1B(O)O`, the GI50 was greater than 100 µM and the TGI was greater than 100 µM.
